One assay has as its target T1, mut-GVHH TtIleRS2 (Thermus thermophilus, UniProt P56690, G56H/H54G).
T1 construct: hexa-histidine tag (pET28b(+)) (N); made in house; host or cells: E. coli Rosetta2 (DE3)
T1 sequence (P56690 1-1043 H54G/G56H): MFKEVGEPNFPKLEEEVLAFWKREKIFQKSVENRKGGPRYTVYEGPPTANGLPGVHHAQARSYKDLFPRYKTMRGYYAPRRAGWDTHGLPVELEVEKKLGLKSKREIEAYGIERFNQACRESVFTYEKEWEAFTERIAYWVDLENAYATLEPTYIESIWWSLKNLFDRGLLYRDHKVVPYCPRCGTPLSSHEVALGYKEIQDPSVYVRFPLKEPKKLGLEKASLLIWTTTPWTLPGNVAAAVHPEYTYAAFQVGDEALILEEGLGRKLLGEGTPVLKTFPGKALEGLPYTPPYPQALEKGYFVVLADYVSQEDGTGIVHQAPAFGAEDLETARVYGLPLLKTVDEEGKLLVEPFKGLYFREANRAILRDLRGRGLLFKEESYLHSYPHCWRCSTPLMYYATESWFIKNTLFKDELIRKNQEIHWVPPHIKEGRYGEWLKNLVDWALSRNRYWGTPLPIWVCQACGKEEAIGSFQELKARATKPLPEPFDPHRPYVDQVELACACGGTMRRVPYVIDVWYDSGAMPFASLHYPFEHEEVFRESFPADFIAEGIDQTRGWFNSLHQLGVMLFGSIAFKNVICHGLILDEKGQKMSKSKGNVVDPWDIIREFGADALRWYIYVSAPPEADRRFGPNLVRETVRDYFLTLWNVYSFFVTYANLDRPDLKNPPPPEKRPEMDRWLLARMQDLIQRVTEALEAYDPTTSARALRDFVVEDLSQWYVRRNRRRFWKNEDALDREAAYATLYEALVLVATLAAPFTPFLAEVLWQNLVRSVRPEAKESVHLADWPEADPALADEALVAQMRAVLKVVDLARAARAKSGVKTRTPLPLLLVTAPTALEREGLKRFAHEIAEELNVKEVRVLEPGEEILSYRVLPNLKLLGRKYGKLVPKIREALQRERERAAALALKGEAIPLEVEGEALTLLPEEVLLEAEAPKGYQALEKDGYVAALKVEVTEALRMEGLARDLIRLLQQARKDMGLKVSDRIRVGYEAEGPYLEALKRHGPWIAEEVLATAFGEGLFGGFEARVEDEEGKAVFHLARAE
Description: biochemical. How it is done:
(§1) L-Ile and ATP concentrations ranged from 1/10 KM to 10 KM values. When measuring the KI towards one of the substrates, the other was held in saturation (concentrations at least 10 KM). The aliquots of the reaction mixture (1–2.5 μl) were quenched in 2 volumes of 500 mM NaOAc pH = 4.5, 0.1% SDS, and formed ^32P-ATP was separated from the remaining ^32P-PPi by thin-layer chromatography on Polygram CEL 300 PEI UV254 TLC plates (Macherey-Nagel, cat: 801063) using 750 mM KH2PO4 pH=3.5, 4 M urea buffer. Visualization and quantification of the signals was performed using a Typhoon Phosphoimager 5 (General Electric) and accompanying ImageQuant™ TL software (SV: 10.2). The kinetic constants were determined using a global fit option of the competitive inhibition model of GraphPad Prism 6 software (SV: 6.01). All experiments were performed in triplicates. The kcat was determined by dividing the maximal velocity, VM, with the used enzyme concentration. […]
(§2) variable substrate (ATP or Ile) was varied in the range of 0.1 KM to 10 KM. The other substrate (Ile or ATP) was kept in excess at 5 to 10 KM. Data were globally fitted to the competitive inhibition model using GraphPad prism 6.01 for Windows software. The values represent the average value ± SD of three independent experiments. Source data are provided as a Source Data file.
(§3) (1 picture or pasted object on this page, not shown here)

A further assay deals with T2, mut-HVGH DrIleRS2 (Deinococcus radiodurans, UniProt Q9RUP8, A59H/H61G/L60V).
T2 construct: hexa-histidine tag (pET28b(+)) (N); made in house; host or cells: E. coli BL21(DE3)
T2 sequence (Q9RUP8 1-1078 A59H/L60V/H61G): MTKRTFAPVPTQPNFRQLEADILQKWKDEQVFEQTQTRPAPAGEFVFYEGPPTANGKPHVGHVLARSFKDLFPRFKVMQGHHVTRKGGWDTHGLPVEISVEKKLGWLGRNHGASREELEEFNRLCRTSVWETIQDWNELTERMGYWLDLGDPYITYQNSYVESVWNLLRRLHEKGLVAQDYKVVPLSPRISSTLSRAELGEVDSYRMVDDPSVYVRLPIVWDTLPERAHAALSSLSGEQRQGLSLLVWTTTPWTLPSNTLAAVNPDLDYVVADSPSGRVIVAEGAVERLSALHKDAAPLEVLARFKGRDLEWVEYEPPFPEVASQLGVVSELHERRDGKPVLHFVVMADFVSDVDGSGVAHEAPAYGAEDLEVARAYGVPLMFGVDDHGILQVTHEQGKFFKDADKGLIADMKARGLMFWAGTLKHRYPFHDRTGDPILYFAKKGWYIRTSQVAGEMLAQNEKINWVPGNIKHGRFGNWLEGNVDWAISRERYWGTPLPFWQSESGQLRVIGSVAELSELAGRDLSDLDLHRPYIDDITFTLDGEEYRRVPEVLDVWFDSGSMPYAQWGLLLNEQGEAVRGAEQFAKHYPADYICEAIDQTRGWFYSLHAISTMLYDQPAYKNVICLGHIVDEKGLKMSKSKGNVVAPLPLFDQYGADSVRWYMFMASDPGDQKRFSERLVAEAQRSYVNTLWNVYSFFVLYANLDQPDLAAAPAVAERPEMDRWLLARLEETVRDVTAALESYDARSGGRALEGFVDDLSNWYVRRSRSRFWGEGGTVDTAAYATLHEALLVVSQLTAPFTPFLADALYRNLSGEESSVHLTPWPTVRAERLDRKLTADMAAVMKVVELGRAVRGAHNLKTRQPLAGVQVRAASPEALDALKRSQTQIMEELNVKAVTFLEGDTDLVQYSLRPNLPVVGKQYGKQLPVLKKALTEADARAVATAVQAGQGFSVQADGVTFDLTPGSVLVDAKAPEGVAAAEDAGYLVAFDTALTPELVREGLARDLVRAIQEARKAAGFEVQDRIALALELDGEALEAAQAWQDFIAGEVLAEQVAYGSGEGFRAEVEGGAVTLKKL
Nature of the assay: biochemical. How it is done: as §1, §2, §3

The subject of the next assay is E. coli IleRS1. The arrangement: method as in earlier work. To be noted: aminoacylation, with tRNA; cited from earlier work.
Setting [1] is: KI (MUP)ATP, amino acid activation assay, ATP as variable substrate, average ± SD of three independent experiments.
[2] abbreviates: KI (MUP)Ile, amino acid activation step, ATP/PPi exchange assay, Ile varied, ATP saturating, average ± SD of three independent experiments.
The mark [3] stands for this setting: KI, single replicates, mupirocin inhibition towards Ile, GraphPad Prism output, Repl1-Repl3.

Several values for one entry are separate records, joined by “and”; a condition that tells them apart may be missing. Equal entries are not always repeated.

The term Ki denotes the dissociation constant of the complex between target and ligand, obtained from inhibition or displacement.

Consider `C/C(=C\C(=O)OCCCCCCCCC(=O)O)C[C@@H]1OC[C@H](C[C@@H]2O[C@H]2[C@@H](C)[C@H](C)O)[C@@H](O)[C@H]1O` [mupirocin], for which the Ki at mut-GVHH TtIleRS2 (setting [1]) was 34 ± 2 µM; on mut-GVHH TtIleRS2 (setting [2]), 35 ± 2 µM; at mut-GVHH TtIleRS2 (setting [3]) it was 34 µM and 35 µM and 36 µM; at mut-HVGH DrIleRS2 (setting [1]), 9.3 ± 0.4 µM; at mut-HVGH DrIleRS2 (setting [2]), 8.1 ± 0.3 µM; at mut-HVGH DrIleRS2 (setting [3]), 7.8 µM and 8.4 µM (2×). Also, the inhibition constant Ki with E. coli IleRS1 was 0.0025 µM.
